This passage reports EC50 results from US9284288B2, “1-(p-tolyl) cyclopropyl substituted bridged spiro[2.4]heptane derivatives as ALX receptor agonists” (Actelion Pharmaceuticals Ltd., priority 2012, dated 2016).

The target in this assay is T1, recombinant human ALX receptor (Homo sapiens, UniProt P25090).
T1 construct: expressed in transfected cells; host or cells: HEK293
T1 sequence (P25090 1-351): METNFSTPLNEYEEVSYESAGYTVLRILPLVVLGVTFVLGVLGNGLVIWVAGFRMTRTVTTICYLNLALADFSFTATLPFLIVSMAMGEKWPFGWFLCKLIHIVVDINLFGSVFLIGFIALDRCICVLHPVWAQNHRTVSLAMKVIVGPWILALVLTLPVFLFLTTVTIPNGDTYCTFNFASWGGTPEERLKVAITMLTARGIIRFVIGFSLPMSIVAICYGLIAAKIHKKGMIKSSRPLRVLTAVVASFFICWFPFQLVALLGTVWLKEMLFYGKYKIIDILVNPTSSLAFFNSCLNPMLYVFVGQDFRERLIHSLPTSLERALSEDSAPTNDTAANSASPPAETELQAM
In words: Intracellular calcium measurements (FLIPR), ALX receptor agonistic activity. To be noted: HEK293-hALXR-Gα16 cells; normalized to WKYMVm 10 nM; read-out: EC50 (agonistic activity with respect to the ALX receptor). The format is cell-based. As to the method: The ALX receptor agonistic activity of the compounds of formula (I) is determined in accordance with the following experimental method.
Cells expressing recombinant human ALX receptor and the G-protein Gα16 (HEK293-hALXR-Gα16) were grown to 80% confluency in Growing Medium (GM). Cells were detached from culture dishes with a cell dissociation buffer (Invitrogen, 13151-014), and collected by centrifugation at 1′000 rpm at rt for 5 min in Assay Buffer (AB) (equal parts of Hank's BSS (Gibco, 14065-049) and DMEM without Phenol Red (Gibco, 11880-028)). After 60 min incubation at 37° C. under 5% CO2 in AB supplemented with 1 μM Fluo-4 (AM) (Invitrogen, F14202) and 20 mM HEPES (Gibco, 15630-056), the cells were washed and resuspended in AB. They were then seeded onto 384-well FLIPR assay plates (Greiner, 781091) at 50,000 cells in 70 μl per well and sedimented by centrifugation at 1,000 rpm for 1 min. Stock solutions of test compounds were made up at a concentration of 10 mM in DMSO, and serially diluted in AB to concentrations required for activation dose response curves. WKYMVm (Phoenix Peptides) was used as a reference agonist. […] Changes in fluorescence were monitored before and after the addition of test compounds at lex=488 nm and lem=540 nm. […]
(In general: Calcium flux is commonly read through the fluorescence of an indicator in the cells.)

What is called EC50 is the concentration needed to bring the measured effect to its halfway point. As to `Cc1ccc(C2(NC(=O)C3C(C(=O)NCCCCN4CCCC4)C4CCC3C43CC3)CC2)cc1` [Example 1, (5R)-N^5-(1-(p-tolyl)cyclopropyl)-(6R)-N^6-(4-(pyrrolidino)butyl)-(4S,7R)-[4,7-ethylene-spiro[2.4]heptane]-5,6-dicarboxamide], the EC50 is 4 nM.
